Source: publication PMC2115601 (The Journal of Cell Biology, 1989)
Residues, ends and D or L forms follow the SMILES beside them.

How the values were obtained:
ADP-stimulated platelets = ADP-stimulated platelets (Homo sapiens, UniProt P05106+P08514); test: Inhibition of 125I-fibrinogen binding to ADP-stimulated platelets; conditions: for Extent of inhibition of fibrinogen binding to platelets: high concentrations of peptide; for IC50: read-out: IC50 Platelets (Table III), mean of three separate experiments
Sequence of ADP-stimulated platelets (P08514 32-1039): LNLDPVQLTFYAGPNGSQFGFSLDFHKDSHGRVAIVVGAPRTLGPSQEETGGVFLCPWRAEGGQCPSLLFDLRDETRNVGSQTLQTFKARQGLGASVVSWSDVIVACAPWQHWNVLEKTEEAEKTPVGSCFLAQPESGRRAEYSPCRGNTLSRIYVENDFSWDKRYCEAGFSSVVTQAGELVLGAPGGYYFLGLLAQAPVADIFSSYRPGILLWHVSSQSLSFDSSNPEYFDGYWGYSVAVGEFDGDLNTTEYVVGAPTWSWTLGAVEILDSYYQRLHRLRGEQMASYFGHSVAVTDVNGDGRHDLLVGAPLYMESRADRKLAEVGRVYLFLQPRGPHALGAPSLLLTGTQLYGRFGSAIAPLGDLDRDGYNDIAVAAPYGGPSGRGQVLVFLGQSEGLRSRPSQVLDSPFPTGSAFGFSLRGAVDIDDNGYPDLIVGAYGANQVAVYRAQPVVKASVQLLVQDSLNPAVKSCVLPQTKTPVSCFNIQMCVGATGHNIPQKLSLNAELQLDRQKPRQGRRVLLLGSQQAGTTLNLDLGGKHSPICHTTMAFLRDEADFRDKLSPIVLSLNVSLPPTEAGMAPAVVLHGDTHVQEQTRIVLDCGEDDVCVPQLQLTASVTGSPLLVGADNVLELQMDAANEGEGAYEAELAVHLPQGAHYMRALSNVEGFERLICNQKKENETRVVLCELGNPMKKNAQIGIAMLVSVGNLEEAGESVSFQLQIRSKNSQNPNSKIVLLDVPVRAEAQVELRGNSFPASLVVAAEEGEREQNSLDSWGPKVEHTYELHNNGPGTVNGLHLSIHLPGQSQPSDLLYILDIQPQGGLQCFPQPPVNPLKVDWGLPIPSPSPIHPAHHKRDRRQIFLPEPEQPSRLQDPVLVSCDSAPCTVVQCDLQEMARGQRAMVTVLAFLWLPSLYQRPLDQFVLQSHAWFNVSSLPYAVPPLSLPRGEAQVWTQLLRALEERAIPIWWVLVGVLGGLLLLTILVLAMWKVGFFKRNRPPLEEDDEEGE
Sequence of ADP-stimulated platelets (P05106 27-788): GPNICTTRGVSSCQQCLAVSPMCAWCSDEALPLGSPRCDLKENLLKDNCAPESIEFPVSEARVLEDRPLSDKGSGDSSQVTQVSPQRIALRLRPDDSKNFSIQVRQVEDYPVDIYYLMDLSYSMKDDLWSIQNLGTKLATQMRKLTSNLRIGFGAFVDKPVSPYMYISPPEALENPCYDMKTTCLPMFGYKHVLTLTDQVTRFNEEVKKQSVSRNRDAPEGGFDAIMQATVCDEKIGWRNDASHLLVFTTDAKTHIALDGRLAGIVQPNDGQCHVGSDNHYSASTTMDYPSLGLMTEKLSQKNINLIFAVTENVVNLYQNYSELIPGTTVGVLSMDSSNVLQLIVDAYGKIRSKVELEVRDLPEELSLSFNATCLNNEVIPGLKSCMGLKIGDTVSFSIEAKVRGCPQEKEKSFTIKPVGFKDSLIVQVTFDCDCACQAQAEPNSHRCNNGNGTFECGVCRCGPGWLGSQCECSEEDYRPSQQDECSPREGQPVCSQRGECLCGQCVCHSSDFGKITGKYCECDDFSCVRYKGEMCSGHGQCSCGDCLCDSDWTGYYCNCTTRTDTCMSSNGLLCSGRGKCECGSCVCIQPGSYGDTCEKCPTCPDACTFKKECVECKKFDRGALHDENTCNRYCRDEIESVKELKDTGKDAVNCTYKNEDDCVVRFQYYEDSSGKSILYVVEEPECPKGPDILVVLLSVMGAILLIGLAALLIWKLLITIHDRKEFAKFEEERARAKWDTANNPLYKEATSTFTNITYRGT
Sequence of ADP-stimulated platelets (P02671 36-866 partner): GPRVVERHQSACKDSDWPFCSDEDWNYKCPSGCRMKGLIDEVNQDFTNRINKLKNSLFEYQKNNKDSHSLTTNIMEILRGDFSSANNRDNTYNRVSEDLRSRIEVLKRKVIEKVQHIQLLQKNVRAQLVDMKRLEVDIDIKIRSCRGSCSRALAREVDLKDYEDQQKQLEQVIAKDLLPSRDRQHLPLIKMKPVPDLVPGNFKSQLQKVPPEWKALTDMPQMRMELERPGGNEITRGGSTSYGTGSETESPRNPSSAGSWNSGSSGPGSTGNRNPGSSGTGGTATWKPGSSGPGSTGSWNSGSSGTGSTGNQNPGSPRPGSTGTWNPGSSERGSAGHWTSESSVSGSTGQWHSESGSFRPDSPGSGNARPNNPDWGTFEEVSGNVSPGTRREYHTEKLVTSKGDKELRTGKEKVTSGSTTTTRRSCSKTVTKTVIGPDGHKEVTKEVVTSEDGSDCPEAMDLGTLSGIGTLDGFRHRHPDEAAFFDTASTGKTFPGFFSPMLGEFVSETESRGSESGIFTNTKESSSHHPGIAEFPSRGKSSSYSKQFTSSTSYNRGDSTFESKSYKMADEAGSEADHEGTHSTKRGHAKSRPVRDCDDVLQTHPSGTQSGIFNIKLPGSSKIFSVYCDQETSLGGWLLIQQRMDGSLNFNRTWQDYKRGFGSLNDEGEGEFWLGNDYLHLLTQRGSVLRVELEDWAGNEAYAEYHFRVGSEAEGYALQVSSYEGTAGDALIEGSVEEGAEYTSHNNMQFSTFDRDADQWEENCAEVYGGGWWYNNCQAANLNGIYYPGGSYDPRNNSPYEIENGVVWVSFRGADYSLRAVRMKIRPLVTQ
Sequence of ADP-stimulated platelets (P02675 45-491 partner): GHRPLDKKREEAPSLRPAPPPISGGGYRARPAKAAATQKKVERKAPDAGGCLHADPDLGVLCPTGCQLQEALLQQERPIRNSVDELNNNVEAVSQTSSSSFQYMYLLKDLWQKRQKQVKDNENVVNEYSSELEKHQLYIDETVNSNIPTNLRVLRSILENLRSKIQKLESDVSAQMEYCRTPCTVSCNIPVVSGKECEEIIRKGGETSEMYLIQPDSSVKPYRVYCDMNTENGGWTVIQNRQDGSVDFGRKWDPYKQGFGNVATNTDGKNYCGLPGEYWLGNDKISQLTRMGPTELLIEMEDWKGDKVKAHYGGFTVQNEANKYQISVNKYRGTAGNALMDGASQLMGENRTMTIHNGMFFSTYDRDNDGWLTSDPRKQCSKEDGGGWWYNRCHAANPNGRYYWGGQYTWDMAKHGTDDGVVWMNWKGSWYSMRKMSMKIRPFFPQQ
Sequence of ADP-stimulated platelets (P02679 27-453 partner): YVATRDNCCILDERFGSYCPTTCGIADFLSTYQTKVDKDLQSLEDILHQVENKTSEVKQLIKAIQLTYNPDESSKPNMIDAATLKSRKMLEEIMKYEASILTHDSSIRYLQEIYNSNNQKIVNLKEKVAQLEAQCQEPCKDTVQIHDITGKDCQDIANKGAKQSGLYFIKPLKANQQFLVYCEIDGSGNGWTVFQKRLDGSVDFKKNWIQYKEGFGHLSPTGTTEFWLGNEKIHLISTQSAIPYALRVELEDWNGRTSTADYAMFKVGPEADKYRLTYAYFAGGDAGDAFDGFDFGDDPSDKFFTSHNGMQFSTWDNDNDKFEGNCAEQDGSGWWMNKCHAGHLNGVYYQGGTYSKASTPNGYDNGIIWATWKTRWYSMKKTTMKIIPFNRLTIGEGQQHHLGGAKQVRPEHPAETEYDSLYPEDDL

endothelial cells [1] = molecular target: T1, endothelial cells (UniProt P05106+P06756); test: Inhibition of 125I-fibrinogen binding to endothelial cells in suspension; set-up: species or system human; conditions: for Extent of inhibition of fibrinogen binding to endothelial cells: high concentrations of peptide
T1 sequence (P06756 31-1048): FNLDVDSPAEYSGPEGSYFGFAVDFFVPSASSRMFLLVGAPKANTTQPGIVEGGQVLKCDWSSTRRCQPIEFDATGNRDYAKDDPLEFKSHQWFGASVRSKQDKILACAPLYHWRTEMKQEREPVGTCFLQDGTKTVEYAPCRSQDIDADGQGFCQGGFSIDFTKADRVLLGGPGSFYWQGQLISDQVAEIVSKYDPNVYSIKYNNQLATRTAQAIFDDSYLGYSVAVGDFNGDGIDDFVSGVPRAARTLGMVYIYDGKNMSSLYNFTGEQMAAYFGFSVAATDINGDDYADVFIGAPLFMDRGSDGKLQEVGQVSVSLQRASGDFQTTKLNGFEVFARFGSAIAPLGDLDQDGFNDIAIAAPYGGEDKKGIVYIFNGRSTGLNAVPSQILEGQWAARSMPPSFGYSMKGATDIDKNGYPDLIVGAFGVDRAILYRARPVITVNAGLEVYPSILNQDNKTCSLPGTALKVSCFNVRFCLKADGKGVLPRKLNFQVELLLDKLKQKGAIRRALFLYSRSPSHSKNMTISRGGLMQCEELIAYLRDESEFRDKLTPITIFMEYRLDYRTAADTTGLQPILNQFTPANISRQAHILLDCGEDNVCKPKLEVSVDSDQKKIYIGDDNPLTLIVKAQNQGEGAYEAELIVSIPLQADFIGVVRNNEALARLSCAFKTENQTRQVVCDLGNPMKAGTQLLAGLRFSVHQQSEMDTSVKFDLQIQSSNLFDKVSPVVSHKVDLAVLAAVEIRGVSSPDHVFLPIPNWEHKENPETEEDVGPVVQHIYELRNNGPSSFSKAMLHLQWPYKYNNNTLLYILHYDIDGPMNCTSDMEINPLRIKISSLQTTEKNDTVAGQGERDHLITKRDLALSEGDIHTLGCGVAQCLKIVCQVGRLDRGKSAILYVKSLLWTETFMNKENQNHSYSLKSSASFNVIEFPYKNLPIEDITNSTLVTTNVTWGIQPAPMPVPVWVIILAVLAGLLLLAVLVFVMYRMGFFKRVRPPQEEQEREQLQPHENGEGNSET
T1 sequence (P05106 27-788): as the sequence (P05106 27-788) above
T1 sequence (P02671 36-866 partner): as the sequence (P02671 36-866 partner) above
T1 sequence (P02675 45-491 partner): as the sequence (P02675 45-491 partner) above
T1 sequence (P02679 27-453 partner): as the sequence (P02679 27-453 partner) above

washed platelets = test: Fibrinogen-dependent aggregation of washed platelets; format: cell-based, human; conditions: 2 mM peptide, 20 μM ADP, medium 199
endothelial cells [2] = molecular target: T1, endothelial cells; test: Endothelial cell spreading on fibrinogen; format: cell-based, human; conditions: 2 mM peptide, medium 199, 2% BSA

SMILES: CC(C)C[C@H](NC(=O)[C@H](Cc1c[nH]cn1)NC(=O)[C@@H](N)Cc1c[nH]cn1)C(=O)NCC(=O)NCC(=O)N[C@@H](C)C(=O)N[C@@H](CCCCN)C(=O)N[C@@H](CCC(N)=O)C(=O)N[C@@H](C)C(=O)NCC(=O)N[C@@H](CC(=O)O)C(=O)N[C@H](C(=O)O)C(C)C [H12] (H-HHLGGAKQAGDV-OH; N-terminus assumed)
- Extent of inhibition of fibrinogen binding to platelets (ADP-stimulated platelets): complete
- Extent of inhibition of fibrinogen binding to endothelial cells (endothelial cells [1]): only partially inhibited

SMILES: CC(C)[C@H](NC(=O)[C@H](CC(=O)O)NC(=O)CNC(=O)[C@H](C)NC(=O)[C@H](CCC(N)=O)NC(=O)[C@H](CCCCN)NC(=O)[C@H](C)NC(=O)CNC(=O)CN)C(=O)O [G9] (H-GGAKQAGDV-OH; N-terminus assumed)
- Extent of inhibition of fibrinogen binding to platelets (ADP-stimulated platelets): complete
- Extent of inhibition of fibrinogen binding to endothelial cells (endothelial cells [1]): only partially inhibited

SMILES: CC(C)[C@H](NC(=O)[C@H](CC(=O)O)NC(=O)CNC(=O)[C@H](C)NC(=O)[C@H](CCC(N)=O)NC(=O)[C@@H](N)Cc1c[nH]cn1)C(=O)O [HQAGDV] (H-HQAGDV-OH; N-terminus assumed)
- IC50 (ADP-stimulated platelets): > 1000 µM
- Potency on endothelial cells relative to platelets (endothelial cells [1]; fibrinogen binding inhibition): at least fivefold
- Inhibition Platelet aggregation (washed platelets): 0%
- Endothelial cell spreading (endothelial cells [2]): + +

SMILES: CC(C)[C@H](NC(=O)[C@H](CC(=O)O)NC(=O)CNC(=O)[C@H](C)NC(=O)[C@H](CCC(N)=O)NC(=O)[C@@H](N)CCCNC(=N)N)C(=O)O [RQAGDV] (H-RQAGDV-OH; N-terminus assumed)
- IC50 (ADP-stimulated platelets): > 1000 µM
